{"source": "ChEMBL document CHEMBL4428029", "about": "“Notch Antagonists: Potential Modulators of Cancer and Inflammatory Diseases” (J Med Chem, 2016)", "key": {"Gamma-secretase [1]": {"target": "Gamma-secretase", "test": "Inhibition of gamma secretase in human SupT1 cells assessed as reduction in amyloid beta 40 after 16 hrs by chemiluminescence assay", "format": "cell-based"}, "Gamma-secretase [2]": {"target": "Gamma-secretase", "test": "Inhibition of gamma secretase mediated Notch signaling in human SupT1 cells after 16 hrs by chemiluminescence assay", "format": "cell-based"}, "Gamma-secretase [3]": {"target": "Gamma-secretase", "test": "Inhibition of gamma secretase (unknown origin) mediated Notch signaling", "format": "protein-complex assay, Homo sapiens"}, "Gamma-secretase [4]": {"target": "Gamma-secretase", "test": "Inhibition of gamma secretase in human MCF7 cells assessed as reduction in amyloid beta 40 after 3 days by Western blot analysis"}, "Gamma-secretase [5]": {"target": "Gamma-secretase", "test": "Inhibition of gamma secretase (unknown origin)", "format": "protein-complex assay, Homo sapiens"}, "Gamma-secretase [6]": {"target": "Gamma-secretase", "test": "Inhibition of gamma secretase mediated amyloid beta level reduction in HEK293 cells expressing APP after 72 hrs by chemiluminescence assay", "format": "cell-based, Homo sapiens"}, "Gamma-secretase [7]": {"target": "Gamma-secretase", "test": "Inhibition of gamma secretase (unknown origin) mediated APP cleavage in CHO cells expressing APP Swedish KM/NL mutant assessed as reduction in amyloid beta 40 after 24 hrs by sandwich ELISA"}, "Gamma-secretase [8]": {"target": "Gamma-secretase", "test": "Inhibition of gamma secretase (unknown origin) mediated Notch M1726V mutant activation in CHO K1 cells after 48 hrs by chemiluminescence assay"}, "Gamma-secretase [9]": {"target": "Gamma-secretase", "test": "Modulation of gamma secretase (unknown origin) assessed as reduction in amyloid beta levels", "format": "protein-complex assay, Homo sapiens"}, "Gamma-secretase [10]": {"target": "Gamma-secretase", "test": "Inhibition of gamma secretase in HEK293 cells expressing APP695 assessed as reduction in amyloid beta (1 to 40 residues) by ELISA", "format": "cell-based, Homo sapiens"}, "Gamma-secretase [11]": {"target": "Gamma-secretase", "test": "Inhibition of gamma secretase mediated Notch1 signaling in HEK293 cells expressing truncated human Notch1 by luciferase reporter gene assay", "format": "cell-based"}, "A549": {"system": "A549", "test": "Antitumor activity against human A549 cells xenografted in nude mouse assessed as tumor growth inhibition at 3 to 60 mg/kg qd or bid administered via oral gavage for 7 to 21 days relative to vehicle treated control", "format": "functional"}, "Gamma-secretase [12]": {"target": "Gamma-secretase", "test": "Inhibition of gamma secretase (unknown origin) mediated Notch activation", "format": "protein-complex assay, Homo sapiens"}, "Gamma-secretase [13]": {"target": "Gamma-secretase", "test": "Inhibition of gamma secretase mediated Notch delta E activation in human HeLa cells expressing EGFP after 16 hrs by immunofluorescence analysis", "format": "cell-based"}, "[14]": {"target": "Disintegrin and metalloproteinase domain-containing protein 17 (Homo sapiens, UniProt P78536)", "sequence (P78536 whole entry, the tested form may be a part)": "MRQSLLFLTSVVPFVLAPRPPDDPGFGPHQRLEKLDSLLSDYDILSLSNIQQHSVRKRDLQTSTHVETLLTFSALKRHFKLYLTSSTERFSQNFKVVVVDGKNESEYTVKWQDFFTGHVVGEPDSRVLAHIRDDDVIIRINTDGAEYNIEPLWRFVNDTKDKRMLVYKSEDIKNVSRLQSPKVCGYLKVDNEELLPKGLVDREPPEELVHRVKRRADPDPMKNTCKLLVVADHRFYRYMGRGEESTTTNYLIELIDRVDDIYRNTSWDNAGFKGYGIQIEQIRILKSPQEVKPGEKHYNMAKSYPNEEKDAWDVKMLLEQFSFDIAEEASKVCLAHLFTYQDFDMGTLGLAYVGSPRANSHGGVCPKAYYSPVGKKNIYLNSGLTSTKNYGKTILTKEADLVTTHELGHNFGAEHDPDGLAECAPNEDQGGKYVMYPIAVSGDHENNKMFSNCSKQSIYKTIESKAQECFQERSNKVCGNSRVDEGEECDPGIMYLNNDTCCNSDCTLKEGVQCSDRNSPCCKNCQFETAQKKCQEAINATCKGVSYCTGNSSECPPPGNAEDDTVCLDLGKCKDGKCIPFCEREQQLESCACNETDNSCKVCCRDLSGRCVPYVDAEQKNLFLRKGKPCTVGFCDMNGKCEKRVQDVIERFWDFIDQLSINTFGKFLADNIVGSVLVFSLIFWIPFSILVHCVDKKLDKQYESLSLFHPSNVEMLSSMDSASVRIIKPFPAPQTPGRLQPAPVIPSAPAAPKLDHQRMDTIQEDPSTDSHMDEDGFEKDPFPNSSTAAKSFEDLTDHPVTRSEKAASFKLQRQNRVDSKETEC", "test": "Inhibition of ADAM17 (unknown origin) assessed as blockage of TNF-alpha shedding"}, "[15]": {"target": "T1, Neuroendocrine convertase 2 (Homo sapiens, UniProt P16519)", "T1 sequence (P16519 whole entry)": "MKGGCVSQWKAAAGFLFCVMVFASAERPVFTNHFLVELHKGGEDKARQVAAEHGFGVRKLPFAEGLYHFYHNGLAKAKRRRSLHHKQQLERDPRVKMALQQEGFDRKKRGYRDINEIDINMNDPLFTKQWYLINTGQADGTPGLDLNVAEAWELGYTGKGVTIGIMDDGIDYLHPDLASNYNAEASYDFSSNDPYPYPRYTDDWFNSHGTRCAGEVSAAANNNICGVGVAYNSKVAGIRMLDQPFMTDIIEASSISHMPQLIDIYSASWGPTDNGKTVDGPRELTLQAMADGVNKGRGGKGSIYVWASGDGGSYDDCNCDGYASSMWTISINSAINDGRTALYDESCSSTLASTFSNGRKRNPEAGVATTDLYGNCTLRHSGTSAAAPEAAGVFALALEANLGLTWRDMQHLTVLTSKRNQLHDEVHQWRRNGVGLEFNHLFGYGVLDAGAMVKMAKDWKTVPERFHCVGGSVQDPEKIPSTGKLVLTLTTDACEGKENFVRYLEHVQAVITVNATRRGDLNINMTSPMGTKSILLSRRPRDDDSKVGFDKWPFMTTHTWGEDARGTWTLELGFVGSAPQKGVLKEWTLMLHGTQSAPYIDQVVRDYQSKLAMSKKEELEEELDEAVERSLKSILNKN", "test": "Inhibition of recombinant C-terminal truncated human SPC2 expressed in drosophila Schneider 2 cells after 1 hr by spectrofluorometry", "format": "cell-based"}, "[16]": {"target": "T2, Neuroendocrine convertase 1 (Homo sapiens, UniProt P29120)", "T2 sequence (P29120 whole entry)": "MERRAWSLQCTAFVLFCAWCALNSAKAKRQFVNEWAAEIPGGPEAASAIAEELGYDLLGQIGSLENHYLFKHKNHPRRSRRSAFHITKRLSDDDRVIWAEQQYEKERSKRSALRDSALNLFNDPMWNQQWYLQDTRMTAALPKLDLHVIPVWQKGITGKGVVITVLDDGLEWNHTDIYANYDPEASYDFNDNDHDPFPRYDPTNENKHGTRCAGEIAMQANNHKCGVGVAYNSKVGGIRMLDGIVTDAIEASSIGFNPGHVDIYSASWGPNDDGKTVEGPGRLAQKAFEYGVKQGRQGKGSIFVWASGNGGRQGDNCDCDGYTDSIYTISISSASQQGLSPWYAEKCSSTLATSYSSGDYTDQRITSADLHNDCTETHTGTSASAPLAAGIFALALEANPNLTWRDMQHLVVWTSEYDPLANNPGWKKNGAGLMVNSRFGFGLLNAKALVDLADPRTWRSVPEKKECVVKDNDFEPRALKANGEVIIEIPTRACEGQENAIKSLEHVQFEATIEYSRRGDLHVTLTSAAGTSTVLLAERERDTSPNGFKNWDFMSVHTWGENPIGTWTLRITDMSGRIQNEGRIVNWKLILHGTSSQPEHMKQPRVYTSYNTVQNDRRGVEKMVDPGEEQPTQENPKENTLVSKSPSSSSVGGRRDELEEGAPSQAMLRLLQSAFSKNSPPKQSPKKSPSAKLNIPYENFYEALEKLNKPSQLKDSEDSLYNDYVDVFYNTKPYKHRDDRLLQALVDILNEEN", "test": "Inhibition of recombinant C-terminal truncated human SPC3 expressed in drosophila Schneider 2 cells after 1 hr by spectrofluorometry", "format": "cell-based"}, "Gamma-secretase [17]": {"target": "Gamma-secretase", "test": "Inhibition of gamma secretase (unknown origin) assessed as reduction in amyloid beta levels by HTRF assay", "format": "protein-complex assay, Homo sapiens"}, "Gamma-secretase [18]": {"target": "Gamma-secretase", "test": "Inhibition of full-length human gamma secretase expressed in SH-SY5Y spbetaA4CTF cells assessed as reduction in amyloid beta levels after 90 mins by HTRF assay", "format": "cell-based"}, "Gamma-secretase [19]": {"target": "Gamma-secretase", "test": "Inhibition of gamma secretase in human primary neuronal cells assessed as reduction in amyloid beta 40"}, "Gamma-secretase [20]": {"target": "Gamma-secretase", "test": "Inhibition of gamma secretase (unknown origin) mediated Notch signaling by cell based luciferase reporter gene assay"}}, "note": "Residues, ends and D or L forms follow the SMILES beside them. *: point of attachment. Decanoyl = CCCCCCCCCC(=O)*; CH2Cl = ClC*", "data": [{"smiles": "C[C@H](NC(=O)Cc1cc(F)cc(F)c1)C(=O)N[C@@H]1C(=O)N(C)c2ccccc2-c2ccccc21", "values": [{"measurement": "IC50", "setting": "Gamma-secretase [1]", "value": 0.0026, "unit": "µM"}, {"measurement": "IC50", "setting": "Gamma-secretase [2]", "value": 0.0029, "unit": "µM"}]}, {"smiles": "C[C@H](NC(=O)CCC(F)(F)F)C(=O)N[C@H]1C(=O)N(CCO)c2ncccc2-c2ccccc21", "values": [{"measurement": "IC50", "setting": "Gamma-secretase [3]", "value": 0.00041, "unit": "µM"}]}, {"smiles": "O=C(O)CC[C@H]1CC[C@@](c2cc(F)ccc2F)(S(=O)(=O)c2ccc(Cl)cc2)CC1", "note": "[MK-0752]", "values": [{"measurement": "IC50", "setting": "Gamma-secretase [4]", "value": 0.005, "unit": "µM"}]}, {"smiles": "CC(C)[C@H](O)C(=O)N[C@@H](C)C(=O)N[C@@H]1C(=O)N(C)CCc2ccccc21", "values": [{"measurement": "IC50", "setting": "Gamma-secretase [5]", "value": "0.0109 to 0.0121", "unit": "µM"}, {"measurement": "IC50", "setting": "Gamma-secretase [3]", "value": 0.0141, "unit": "µM"}]}, {"smiles": "COc1oc(=O)c2cc(N)ccc2c1Cl", "values": [{"measurement": "IC50", "setting": "Gamma-secretase [6]", "value": 30, "unit": "µM"}]}, {"smiles": "O=S(=O)(N[C@H](CO)C(C(F)(F)F)C(F)(F)F)c1ccc(Cl)s1", "note": "[BEGACESTAT]", "values": [{"measurement": "IC50", "setting": "Gamma-secretase [7]", "value": 0.0148, "unit": "µM"}, {"measurement": "IC50", "setting": "Gamma-secretase [8]", "value": 0.208, "unit": "µM"}]}, {"smiles": "C[C@@H](C(=O)O)c1ccc(-c2ccccc2)c(F)c1", "note": "[TARENFLURBIL]", "values": [{"measurement": "IC50", "setting": "Gamma-secretase [9]", "value": 100, "unit": "µM"}]}, {"smiles": "CC(C)(C(=O)NCC(F)(F)C(F)(F)F)C(=O)N[C@@H]1C(=O)Nc2ccccc2-c2ccccc21", "note": "[RG-4733]", "values": [{"measurement": "EC50", "setting": "Gamma-secretase [10]", "value": 0.014, "unit": "µM"}, {"measurement": "EC50", "setting": "Gamma-secretase [11]", "value": 0.005, "unit": "µM"}, {"measurement": "TGI", "setting": "A549", "value": "66 - 91%"}]}, {"smiles": "CC(C)[C@H](O)C(=O)N[C@@H](C)C(=O)N[C@@H]1C(=O)N(C)c2ccccc2-c2ccccc21", "values": [{"measurement": "IC50", "setting": "Gamma-secretase [12]", "value": 0.00027, "unit": "µM"}]}, {"smiles": "CC1=C(C(=O)OC2CCCCC2)C(c2ccc([N+](=O)[O-])cc2)C2=C(CC(C)(C)CC2=O)N1", "note": "(configuration not stated)", "values": [{"measurement": "IC50", "setting": "Gamma-secretase [13]", "value": 2.3, "unit": "µM"}]}, {"smiles": "CC(C)CC(CC(=O)NO)C(=O)N[C@@H](Cc1ccc2ccccc2c1)C(=O)N[C@@H](C)C(=O)NCCN", "note": "(some centres not stated)", "values": [{"measurement": "IC50", "setting": "[14]", "value": 8.1, "unit": "µM"}]}, {"smiles": "CCCCCCCCCC(=O)N[C@@H](CCCNC(=N)N)C(=O)N[C@H](C(=O)N[C@@H](CCCCN)C(=O)N[C@@H](CCCNC(=N)N)C(=O)CCl)C(C)C", "note": "(Decanoyl-RVKR-CH2Cl)", "values": [{"measurement": "Ki", "setting": "[15]", "value": 0.00036, "unit": "µM"}, {"measurement": "Ki", "setting": "[16]", "value": 0.002, "unit": "µM"}]}, {"smiles": "CC(C)C[C@H](NC(=O)[C@H](Cc1ccccc1)C[C@@H](O)[C@H](Cc1ccccc1)NC(=O)OC(C)(C)C)C(=O)N[C@@H](Cc1ccccc1)C(N)=O", "values": [{"measurement": "IC50", "setting": "Gamma-secretase [17]", "value": 0.017, "unit": "µM"}, {"measurement": "IC50", "setting": "Gamma-secretase [18]", "value": "0.115 to 0.2", "unit": "µM"}]}, {"smiles": "C[C@H](NC(=O)Cc1cc(F)cc(F)c1)C(=O)N[C@H](C(=O)OC(C)(C)C)c1ccccc1", "values": [{"measurement": "IC50", "setting": "Gamma-secretase [19]", "value": "0.115 to 0.2", "unit": "µM"}, {"measurement": "IC50", "setting": "Gamma-secretase [20]", "value": 0.5, "unit": "µM"}]}]}
